Here are results for four molecules from US7393818B2 (priority 2003, dated 2008).

Assay [1] deals with Scrapie (sheep) prion protein (Ovis aries, UniProt P23907).
The next assay relates to prions. The note with it: reported in literature; cited from earlier work.

Scrapie (sheep) prion protein, sequence (P23907 25-233 limits assumed): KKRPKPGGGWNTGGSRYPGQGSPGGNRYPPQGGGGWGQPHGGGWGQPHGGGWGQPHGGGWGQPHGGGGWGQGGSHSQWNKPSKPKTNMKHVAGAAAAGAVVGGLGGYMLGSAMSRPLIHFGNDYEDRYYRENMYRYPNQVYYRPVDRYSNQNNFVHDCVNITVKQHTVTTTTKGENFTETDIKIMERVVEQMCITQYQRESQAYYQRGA

Take `OO` [7% Hydrogen Peroxide, hydrogen peroxide]: the “effect on the percentage of samples showing presence of prion” value in assay [1] (in the period of the test (one hour soak)) is reported as “no effect”. Further, in assay [1] (wires soaked for one hour), the “Percentage of Samples Tested where Prion (Scrapie) is Detected” value is given as 100%.

For the molecule `O=CCCCC=O` [Glutaraldehyde], in the assay with prions, the effectiveness against prions result was “ineffective”.

Take `C1CO1` [ethylene oxide]: in the assay with prions, the effectiveness against prions entry is “ineffective”.

As to `OO` [hydrogen peroxide], the effectiveness against prions entry in the assay with prions is “ineffective”.
